Experiment [1] deals with DNA dC->dU-editing enzyme APOBEC-3G (Homo sapiens, UniProt Q9HC16). Type of experiment: functional.
The target in experiment [2] is DNA dC->dU-editing enzyme APOBEC-3A (Homo sapiens, UniProt P31941). The experiment in a line: Dose Response confirmation of small molecule APOBEC3A DNA Deaminase Inhibitors via a fluorescence-based single-stranded DNA deaminase assay. [Related pubchem assays (depositor defined):AID493011, AID493024]. The class given is functional.
For experiment [3], the target named is Polyadenylate-binding protein 1 (Homo sapiens, UniProt P11940). Kind of experiment: PABP poly(A) RNA binding inhibitors, primary screen, biochemical, fluorescence polarization, uHTS (AID 2014).
For experiment [4], the target named is Eukaryotic translation initiation factor 4H (Homo sapiens, UniProt Q15056). Kind of experiment: human eIF4H binding inhibitors, primary screen, translation initiation inhibitor project, biochemical, uHTS, fluorescence polarization (AID 2012). Background: Fluorescence polarisation rises when a labelled molecule tumbles more slowly, as on binding a larger partner.

A further experiment has as its target T1, Estrogen receptor (Homo sapiens, UniProt P03372).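 Further: potency for inhibiting coactivator peptide recruitment to the receptor.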
T1 sequence (P03372 whole entry): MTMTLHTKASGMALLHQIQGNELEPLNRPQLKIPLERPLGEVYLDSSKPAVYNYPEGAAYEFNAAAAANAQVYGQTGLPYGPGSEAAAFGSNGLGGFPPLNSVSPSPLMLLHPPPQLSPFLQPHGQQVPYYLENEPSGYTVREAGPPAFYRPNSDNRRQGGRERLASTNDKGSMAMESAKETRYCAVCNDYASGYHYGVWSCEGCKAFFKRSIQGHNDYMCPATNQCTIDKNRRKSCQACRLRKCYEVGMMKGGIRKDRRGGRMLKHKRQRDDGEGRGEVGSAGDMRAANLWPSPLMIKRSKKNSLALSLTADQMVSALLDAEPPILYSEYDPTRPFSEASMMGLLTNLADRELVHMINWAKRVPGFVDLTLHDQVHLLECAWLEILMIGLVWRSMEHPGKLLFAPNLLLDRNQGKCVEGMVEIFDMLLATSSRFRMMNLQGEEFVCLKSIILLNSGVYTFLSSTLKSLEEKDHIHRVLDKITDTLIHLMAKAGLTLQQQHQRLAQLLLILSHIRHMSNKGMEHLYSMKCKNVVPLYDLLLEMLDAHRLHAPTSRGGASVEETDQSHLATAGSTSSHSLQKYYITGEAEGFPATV

In a further experiment the target is T2, Aminopeptidase N (Plasmodium falciparum FcB1/Columbia, UniProt O96935).
T2 sequence (O96935 whole entry): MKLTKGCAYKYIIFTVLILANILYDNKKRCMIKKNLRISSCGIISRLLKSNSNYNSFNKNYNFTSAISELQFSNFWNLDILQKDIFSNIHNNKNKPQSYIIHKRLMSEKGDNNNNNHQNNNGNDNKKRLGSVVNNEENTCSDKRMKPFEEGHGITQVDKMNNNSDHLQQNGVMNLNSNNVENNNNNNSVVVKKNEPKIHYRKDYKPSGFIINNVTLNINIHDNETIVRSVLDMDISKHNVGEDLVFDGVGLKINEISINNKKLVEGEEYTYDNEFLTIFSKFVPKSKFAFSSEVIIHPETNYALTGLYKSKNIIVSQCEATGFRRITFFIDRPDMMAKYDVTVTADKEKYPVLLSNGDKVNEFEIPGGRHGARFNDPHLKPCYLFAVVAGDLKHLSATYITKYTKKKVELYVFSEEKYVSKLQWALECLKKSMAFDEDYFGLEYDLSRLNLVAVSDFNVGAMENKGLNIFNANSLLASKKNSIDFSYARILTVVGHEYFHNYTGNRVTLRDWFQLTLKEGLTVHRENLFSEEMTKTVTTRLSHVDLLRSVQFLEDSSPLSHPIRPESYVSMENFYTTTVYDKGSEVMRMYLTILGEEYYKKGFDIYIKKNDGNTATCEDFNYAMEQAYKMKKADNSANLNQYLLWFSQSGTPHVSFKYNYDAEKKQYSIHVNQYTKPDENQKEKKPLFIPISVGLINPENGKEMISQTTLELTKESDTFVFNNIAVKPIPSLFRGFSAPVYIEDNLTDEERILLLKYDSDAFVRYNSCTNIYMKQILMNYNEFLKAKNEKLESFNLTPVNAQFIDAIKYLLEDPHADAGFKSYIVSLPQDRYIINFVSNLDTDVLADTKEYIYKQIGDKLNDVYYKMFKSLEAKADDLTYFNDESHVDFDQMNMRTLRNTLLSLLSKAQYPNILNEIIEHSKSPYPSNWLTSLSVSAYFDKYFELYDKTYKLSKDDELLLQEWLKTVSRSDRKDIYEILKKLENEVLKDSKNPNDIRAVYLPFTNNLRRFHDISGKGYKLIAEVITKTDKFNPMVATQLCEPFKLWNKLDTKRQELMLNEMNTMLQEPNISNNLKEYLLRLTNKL
Kind of experiment: P. falciparum M1AAP inhibitors, biochemical, fluorogenic H-Leu-NHMec substrate, 1536-well (AID 1445). Also on record: species or system Plasmodium falciparum 3D7, 3D7.

The target in a further experiment is Large T antigen (Simian virus 40, UniProt P03070). Type of experiment: functional, Betapolyomavirus macacae.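 Further: Confirmatory-stage PubChem screen for compounds that inhibit SV40 T antigen.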
The next experiment deals with T3, Hexokinase HKDC1 (Homo sapiens, UniProt Q2TB90).
T3 sequence (Q2TB90 whole entry): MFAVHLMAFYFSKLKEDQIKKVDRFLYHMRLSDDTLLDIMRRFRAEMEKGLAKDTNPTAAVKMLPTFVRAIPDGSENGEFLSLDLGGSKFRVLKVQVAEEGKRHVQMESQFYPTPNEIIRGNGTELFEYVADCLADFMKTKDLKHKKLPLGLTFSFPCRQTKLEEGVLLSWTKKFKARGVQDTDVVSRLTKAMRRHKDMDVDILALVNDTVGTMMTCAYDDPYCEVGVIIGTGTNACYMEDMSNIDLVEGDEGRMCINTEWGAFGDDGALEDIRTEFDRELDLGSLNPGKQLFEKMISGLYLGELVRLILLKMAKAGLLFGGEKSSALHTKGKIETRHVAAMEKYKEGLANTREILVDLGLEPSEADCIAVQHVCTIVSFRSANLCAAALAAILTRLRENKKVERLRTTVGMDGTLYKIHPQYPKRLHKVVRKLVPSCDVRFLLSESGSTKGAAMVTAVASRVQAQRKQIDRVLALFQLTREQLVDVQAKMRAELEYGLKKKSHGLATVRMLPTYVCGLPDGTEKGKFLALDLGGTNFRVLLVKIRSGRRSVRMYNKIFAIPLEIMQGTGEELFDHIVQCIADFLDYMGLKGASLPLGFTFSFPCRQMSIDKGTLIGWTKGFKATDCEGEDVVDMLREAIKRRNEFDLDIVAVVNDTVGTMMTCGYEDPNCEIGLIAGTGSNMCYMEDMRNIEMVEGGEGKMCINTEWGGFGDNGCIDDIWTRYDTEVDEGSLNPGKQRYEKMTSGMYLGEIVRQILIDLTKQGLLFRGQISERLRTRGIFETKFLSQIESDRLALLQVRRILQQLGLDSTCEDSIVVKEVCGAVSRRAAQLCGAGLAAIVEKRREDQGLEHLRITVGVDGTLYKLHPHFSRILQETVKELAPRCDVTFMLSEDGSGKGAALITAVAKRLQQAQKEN
The experiment in a line: HKDC1 hexokinase inhibitors, dose response, biochemical, W721R variant (AID 504729). The class given is functional.

Experiment [5] addresses FAD-linked sulfhydryl oxidase ALR (Homo sapiens, UniProt P55789). The experiment in a line: inhibitors of human ALR sulfhydryl oxidase, dose response, biochemical, H2O2 detection, luminescence, cherry-pick (AID 493248).
Experiment [6] in a line: NIH-3T3 fibroblast cytotoxicity, dose response, cytotoxicity control, cell-based, fluorescence, Alamar Blue, secondary assay (AID 2327).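 Further: NIH-3T3 mouse fibroblasts cultured with fluconazole at 8 µg/mL.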 Type of experiment: functional. Background: Resazurin is reduced to fluorescent resorufin, in cell work by metabolically active cells.
Experiment [7] is described as follows: C. albicans growth with fluconazole, confirmation, fluorescence, retest (AID 2467). Type of experiment: functional, cell-based.
Another experiment has as its target Nonstructural protein 1 (Influenza A virus, UniProt Q194T2). Type of experiment: functional, Influenza A virus (A/California/07/2009(H1N1)).

The structures appear in SMILES notation. Calls of active or inactive are those of the source. Where only a bound is given, the exact number is not on record here.

Chain of Polyadenylate-binding protein 1 (P11940 whole entry): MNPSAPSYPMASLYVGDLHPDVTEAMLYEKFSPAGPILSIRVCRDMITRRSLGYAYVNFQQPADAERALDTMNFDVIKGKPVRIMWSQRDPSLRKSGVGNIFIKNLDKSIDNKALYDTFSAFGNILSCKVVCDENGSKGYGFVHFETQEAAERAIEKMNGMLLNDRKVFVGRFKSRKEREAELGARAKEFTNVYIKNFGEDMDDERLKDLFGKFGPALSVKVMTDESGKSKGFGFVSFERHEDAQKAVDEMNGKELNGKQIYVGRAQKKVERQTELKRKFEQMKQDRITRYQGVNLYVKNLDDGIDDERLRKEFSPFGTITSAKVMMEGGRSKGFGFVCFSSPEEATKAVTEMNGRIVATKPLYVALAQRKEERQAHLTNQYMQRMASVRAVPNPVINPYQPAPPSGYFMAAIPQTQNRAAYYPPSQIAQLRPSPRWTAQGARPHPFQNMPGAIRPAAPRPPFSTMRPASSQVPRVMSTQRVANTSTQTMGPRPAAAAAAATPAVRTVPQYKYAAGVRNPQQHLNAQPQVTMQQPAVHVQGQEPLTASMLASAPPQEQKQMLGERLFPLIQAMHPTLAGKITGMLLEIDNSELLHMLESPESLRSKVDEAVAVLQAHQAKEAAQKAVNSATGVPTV
Chain of Large T antigen (P03070 whole entry): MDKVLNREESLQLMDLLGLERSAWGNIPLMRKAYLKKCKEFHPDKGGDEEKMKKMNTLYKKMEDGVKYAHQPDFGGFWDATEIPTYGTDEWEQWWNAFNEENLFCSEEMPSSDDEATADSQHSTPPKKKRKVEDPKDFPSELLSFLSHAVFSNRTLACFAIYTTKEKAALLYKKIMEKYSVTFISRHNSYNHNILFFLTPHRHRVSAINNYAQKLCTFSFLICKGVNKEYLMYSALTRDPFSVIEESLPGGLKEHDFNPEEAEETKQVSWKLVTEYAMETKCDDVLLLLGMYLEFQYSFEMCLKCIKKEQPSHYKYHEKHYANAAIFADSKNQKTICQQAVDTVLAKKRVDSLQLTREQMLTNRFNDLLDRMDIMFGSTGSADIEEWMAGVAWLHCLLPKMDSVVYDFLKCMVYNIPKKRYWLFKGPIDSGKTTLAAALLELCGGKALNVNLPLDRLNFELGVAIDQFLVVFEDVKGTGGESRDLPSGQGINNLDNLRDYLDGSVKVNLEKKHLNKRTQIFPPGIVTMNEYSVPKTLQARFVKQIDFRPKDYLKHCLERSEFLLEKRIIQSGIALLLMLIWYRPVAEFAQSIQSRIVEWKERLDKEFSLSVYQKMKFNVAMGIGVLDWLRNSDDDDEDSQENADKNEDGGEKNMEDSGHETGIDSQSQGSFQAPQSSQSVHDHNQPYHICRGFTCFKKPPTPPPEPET
Chain of DNA dC->dU-editing enzyme APOBEC-3A (P31941 whole entry): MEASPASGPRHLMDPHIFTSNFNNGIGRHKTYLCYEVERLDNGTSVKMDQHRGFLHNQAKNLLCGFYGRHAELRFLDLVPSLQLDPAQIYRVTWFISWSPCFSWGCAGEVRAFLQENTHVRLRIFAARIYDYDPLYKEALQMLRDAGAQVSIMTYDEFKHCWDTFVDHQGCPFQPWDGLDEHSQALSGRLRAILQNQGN
Chain of FAD-linked sulfhydryl oxidase ALR (P55789 whole entry): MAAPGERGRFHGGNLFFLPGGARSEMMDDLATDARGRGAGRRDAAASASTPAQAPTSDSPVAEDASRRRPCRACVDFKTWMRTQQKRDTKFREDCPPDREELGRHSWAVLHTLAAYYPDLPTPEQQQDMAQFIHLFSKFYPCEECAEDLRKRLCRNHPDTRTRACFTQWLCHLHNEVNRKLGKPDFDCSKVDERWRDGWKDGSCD
Chain of Nonstructural protein 1 (Q194T2 whole entry): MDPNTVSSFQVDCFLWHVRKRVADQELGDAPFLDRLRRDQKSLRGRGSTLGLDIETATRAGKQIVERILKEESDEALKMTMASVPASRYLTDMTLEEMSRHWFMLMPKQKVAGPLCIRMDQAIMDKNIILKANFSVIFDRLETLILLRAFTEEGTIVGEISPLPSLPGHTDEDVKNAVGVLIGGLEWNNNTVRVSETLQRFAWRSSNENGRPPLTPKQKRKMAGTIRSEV
Chain of DNA dC->dU-editing enzyme APOBEC-3G (Q9HC16 whole entry): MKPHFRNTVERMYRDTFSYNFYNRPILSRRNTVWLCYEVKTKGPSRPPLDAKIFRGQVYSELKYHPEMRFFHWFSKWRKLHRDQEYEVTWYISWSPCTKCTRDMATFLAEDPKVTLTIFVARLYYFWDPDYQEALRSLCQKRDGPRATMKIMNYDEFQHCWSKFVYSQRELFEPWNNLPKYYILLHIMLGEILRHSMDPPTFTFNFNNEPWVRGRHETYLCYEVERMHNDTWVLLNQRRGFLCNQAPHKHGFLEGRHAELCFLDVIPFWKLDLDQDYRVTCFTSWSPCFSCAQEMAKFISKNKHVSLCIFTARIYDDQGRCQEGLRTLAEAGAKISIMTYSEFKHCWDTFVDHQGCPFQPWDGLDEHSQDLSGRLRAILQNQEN

With `COc1ccc(N(CC(=O)N2CCCCCC2)S(=O)(=O)c2ccccc2[N+](=O)[O-])c(OC)c1`, the IC50 in experiment [1] was 4.83 µM (active); in experiment [2], 5.63 µM (active); in [3], 11.9 µM (active); in experiment [4], > 100 µM (inactive).

In the case of `COc1cc(-c2nnc(-c3ccc(S(=O)(=O)c4ccccc4)cc3)o2)cc(OC)c1OC`, the IC50 on Estrogen receptor is reported as > 50 µM (not active).

As for `O=C(Nc1nc2ccccc2s1)c1cc2c(s1)-c1ccccc1OC2`, the half-maximal inhibitory concentration (IC50) against Estrogen receptor is listed as > 50 µM (not active).

With `COc1cc(/C=C2\SC(=S)N(C(Cc3ccccc3)C(=O)O)C2=O)ccc1O` (stereo not given), the IC50 is 42.3 µM (active) on Aminopeptidase N and 65 µM (active) at Large T antigen.

As to `C[n+]1cnn2c1SCC1(COC1)C2`, the IC50 in [3] was 4.59 µM (active); in experiment [4], > 100 µM (inactive).

With `CCCS(=O)(=O)N1CCC(C(=O)NCc2ccc(F)cc2)CC1`, the IC50 on Aminopeptidase N is 31.6 µM (active).

For `COc1cc(/C=C2/C(=O)NN(c3ccc(Cl)c(Cl)c3)C2=O)cc([N+](=O)[O-])c1O`, the 50% inhibitory concentration (IC50) is 12.5 µM (active) on Large T antigen and 32.5 µM (inactive) at Hexokinase HKDC1. The AC50 in [5] was 0.409 µM (active).

Take `Cc1cc(C(F)F)n2ncc(C(=O)NCCc3ccc(Cl)cc3)c2n1`: on Hexokinase HKDC1, the IC50 is 12.7 µM (active).

`Oc1ccc(/C=N/N(c2ccccc2)c2ccccc2)c(O)c1O`: the EC50 was > 160 µM (inactive) in experiment [6] and > 38 µM (not active) in experiment [7]. For the same compound, the IC50 at Nonstructural protein 1 is 47.6 µM (active); in [3], > 100 µM (inactive); in [4] it was 31.7 µM (active).

By IC50 is commonly meant the concentration needed to halve the response being measured. One may read the AC50 as the concentration giving half of the maximal activity seen. Broadly, the EC50 is the concentration giving half of the maximal effect.

The record behind these values is ChEMBL document CHEMBL1201862, “PubChem BioAssay data set” (2004).
